Values quoted from earlier work in US8748394B2, “Apo A-I mimetic peptides and methods of treatment” (Abbott Cardiovascular Systems Inc., priority 2007, dated 2014).
“Also recorded” adds a separate entry of the source. Square brackets hold non-standard residues; d marks the D form. Ends that are not written are not given here.

Test system: reverse cholesterol transport
Conditions: for function in reverse cholesterol transport in vitro: when a phospholipid complex is presented; for effectiveness in reverse cholesterol transport: without a lipid complex (non-complex form)

Substance: DWFKAFYDKVAEKFKEAF [D-4F] ([dD][dW][dF][dK][dA][dF][dY][dD][dK][dV][dA][dE][dK][dF][dK][dE][dA][dF]) [18 amino acid Apo A-I mimetic peptide 4F, D enantiomer]
- function in reverse cholesterol transport in vitro: function more effectively
- effectiveness in reverse cholesterol transport: effective in reverse cholesterol transport without a lipid complex; also recorded: demonstrated an ability to function in a non-complex form

Substance: Ac-PALEDLRQGLLPVLESFKVFLSALEEYTKKLNTQ-NH2 [33-mer peptide mimetic, 33-mer peptide, helices 9/10]
- need of phospholipid complex for effective reverse cholesterol transport: requires phospholipid complex formation

Substance: DWFKAFYDKVAEKFKEAF [L-4F] (not fully specified) [18 amino acid Apo A-I mimetic peptide 4F, L enantiomer]
- function in reverse cholesterol transport in vitro: function more effectively
- effectiveness in reverse cholesterol transport: demonstrated an ability to function in a non-complex form
